{"source": "patent US20230363335A1", "about": "“STANDARDIZED AND VIRUS-FREE RAPID PROPAGATION METHOD OF DIANTHUS CARYOPHYLLUS” (Flower Research Institute, Yunnan Academy of Agricultural …, priority 2022, published 2023)", "key": {"[1]": {"test_system": "Carnation mottle virus (CarMV) and Carnation necrotic fleck virus (CNFV)", "experiment": "Virus-free culture, ribavirin combined with shoot apex peeling: virus-free regenerated plants", "format": "in vivo, Dianthus caryophyllus", "details": "3 mg/L to 5 mg/L ribavirin in medium, 30 d to 40 d; for Number of virus-free regenerated plant (s): 30 shoot apexes", "experimental": "Double-antibody sandwich ELISA included: 100 µL of an antibody diluted to a working concentration with a coating buffer was added to wells of a microtiter plate, the microtiter plate was placed in a wet box, and incubated in a refrigerator at 4° C. overnight, or incubated at room temperature (20° C. to 25° C.) for 4 h. The coating buffer was a 0.05 mol/L Na2CO3—NaHCO3 buffer, at a pH value of 9.6. Dianthus caryophyllus leaves and a grinding buffer were put in a disposable ziplock bag at a ratio of 1:10 (W/V), the bag was sealed tightly, and the sample was ground. The grinding buffer was obtained by: dissolving 2.0 g of a skim milk powder, 10.0 g of polyvinylpyrrolidone (PVP, MW24,000-40,000), 1.3 g of anhydrous sodium sulfite, 0.2 g of NaN3, and 10.0 g of Tween-20 in a washing buffer (PBST), diluting to 1,000 mL, and storing at 4° C. The washing buffer (PBST) was obtained by: dissolving 8.0 g of NaCl, 0.2 g of KH2PO4, 2.9 g of Na2HPO4·12H2O, 0.2 g of KCl, and 0.5 mL of Tween-20 in distilled water, diluting to 1,000 mL, and adjusting to a pH value of 7.4. After incubation, the microtiter plate was washed 4 to 6 times with the washing buffer. 400 µL of the PBST washing buffer was added to each well and held for 1 min to 2 min each time. 100 µL of a supernatant after grinding was added to each well, and each sample to be tested was repeated twice, and a negative control and a positive control were set at the same time. The microtiter plate was placed in a wet box, incubated in a refrigerator at 4° C. overnight or incubated at 21° C. to 24° C. for 2.5 h. The plate was washed. An enzyme-labeled antibody was prepared 10 min before coating, a dilution buffer of the specific enzyme-labeled antibody was diluted to a working concentration, and 100 µL was added to each well. The microtiter plate was placed in a wet box, incubated at 21° C. to 24° C. for 2.5 h. The plate was washed. The dilution buffer of the enzyme-labeled antibody was obtained by: dissolving 2.0 g of bovine serum albumin (BSA), 10.0 g of PVP (MW24,000-40,000), and 0.2 g of NaN3 in the PBST, diluting to 1,000 mL, and storing at 4° C. 100 µL of a substrate solution was added to each well. The substrate solution was prepared for immediate use by: dissolving 1 mg of PNPP in 1 mL of a substrate buffer, with a concentration of 1 mg/mL. The substrate buffer is obtained by: dissolving 97.0 mL of diethanolamine, 0.1 g of magnesium chloride, and 0.2 g of NaN3 in 800 mL of distilled water, adjusting to a pH value of 9.8 with 2 mol/L hydrochloric acid, diluting to 1000 mL, and storing at 4° C. The microtiter plate was placed in a wet box, to conduct color development at 21° C. to 24° C. for 30 min to 60 min in the dark. 50 µL of a stop solution was added to each well to stop the reaction. The stop solution was a sodium hydroxide solution of 3 mol/L. Within 20 min of stopping the reaction, the microtiter plate was placed in a microplate reader, an absorbance (OD405) was measured at 405 nm, and a reaction result was recorded. If an average OD value of the sample was greater than 2 times an OD value of the negative control, it was determined to be the CarMV.\nThe indirect ELISA included: Dianthus caryophyllus leaves and an indirect sample extraction buffer were placed in a disposable ziplock bag at a ratio of 1:100 (W/V), the bag was sealed tightly, and the sample was ground. The sample extraction buffer was obtained by: dissolving 20.1 g of PVP (MW24,000-40,000), 0.2 g of NaN3, 3.0 g of NaHCO3, and 1.6 g of Na2CO3 in distilled water, diluting to […], and storing at 4° C. 100 µL of a supernatant after grinding was added to each well, and each sample to be tested was repeated twice, and a negative control and a positive control were set at the same time. The microtiter plate was placed in a wet box and incubated at room temperature for 1 h. After incubation, the microtiter plate was washed 8 times with the PBST washing buffer. […]"}, "[2]": {"test_system": "Dianthus caryophyllus shoot apex", "experiment": "Virus-free culture, ribavirin combined with shoot apex peeling: regeneration of peeled shoot apex", "format": "in vivo", "details": "3 mg/L to 5 mg/L ribavirin in medium, 30 d to 40 d; for Number of regenerated plant (s): 30 shoot apexes", "description": "After the explant germinated and buds grew to 2 cm to 3 cm, the buds were cut and subjected to virus-free culture; three virus-free methods were used, and the most suitable virus-free method was selected for Dianthus caryophyllus. • (1) Directly shoot apex peeling method: the material was placed on an ultra-clean workbench, and tender leaves were peeled off with tweezers and a scalpel under the naked eye to expose a growth cone; a base of the bud was fixed with tweezers, and the shoot apex was continued to be peeled under a dissecting microscope at 25 to 50 times; when peeling to a growth point containing 1 to 2 pairs of leaf primordia, the shoot apex was picked on a medium with the tip of a knife. • (2) High-temperature treatment combined with shoot apex peeling method: the material was placed in a KBWF720 artificial climate box, and incubated for 30 d to 35 d at 38° C. ± 1° C. every day, with illumination for 14 h to 16 h at 1,200 Lux to 1,500 Lux, and then with darkness for 8 h to 10 h; and the shoot apex was continued to be peeled under a dissecting microscope at 25 to 50 times; when peeling to a growth point containing 1 to 2 pairs of leaf primordia, the shoot apex was picked on a medium with the tip of a knife. • (3) Ribavirin combined with shoot apex peeling method: the material was inoculated on a medium containing ribavirin for culture, namely MS+BA 0.5 mg/L to 1.5 mg/L+NAA 0.1 mg/L to 0.3 mg/L+3 mg/L to 5 mg/L ribavirin+A Agar 6.0 g/L, 3% sucrose, at a pH value of 5.8 to 6.0; after culturing for 30 d to 40 d, the shoot apex was peeled off.\nThe peeled shoot apex was inoculated on a medium including MS+BA 0.5 mg/L to 1.0 mg/L+NAA 0.1 mg/L to 0.3 mg/L+A agar 6.0 g/L, 3% sucrose, at a pH value of 5.8 to 6.0; each shoot apex was cultured and numbered separately; the culture was conducted at 22±1° C. and an illumination intensity of 2,000 Lux to 4,000 Lux with an illumination time of 10 h/d to 12 h/d."}, "[3]": {"details": "growth point of peeled shoot apex 0.2 mm"}, "[4]": {"details": "growth point of peeled shoot apex 0.4 mm"}, "[5]": {"details": "growth point of peeled shoot apex 0.6 mm"}, "[6]": {"details": "growth point of peeled shoot apex 0.8 mm"}, "[7]": {"details": "growth point of peeled shoot apex 1.0 mm"}}, "data": [{"smiles": "NC(=O)c1ncn([C@@H]2O[C@H](CO)[C@@H](O)[C@H]2O)n1", "note": "[Ribavirin, ribavirin]", "values": [{"measurement": "Virus-free rate (%)", "setting": "[1]; [3]", "result": 33.33, "unit": "%"}, {"measurement": "Number of virus-free regenerated plant (s)", "setting": "[1]; [3]", "result": 10}, {"measurement": "Virus-free rate (%)", "setting": "[1]; [4]", "result": 30.00, "unit": "%"}, {"measurement": "Number of virus-free regenerated plant (s)", "setting": "[1]; [4]", "result": 9}, {"measurement": "Virus-free rate (%)", "setting": "[1]; [5]", "result": 26.67, "unit": "%"}, {"measurement": "Number of virus-free regenerated plant (s)", "setting": "[1]; [5]", "result": 8}, {"measurement": "Virus-free rate (%)", "setting": "[1]; [6]", "result": 20.00, "unit": "%"}, {"measurement": "Number of virus-free regenerated plant (s)", "setting": "[1]; [6]", "result": 6}, {"measurement": "Virus-free rate (%)", "setting": "[1]; [7]", "result": 10.00, "unit": "%"}, {"measurement": "Number of virus-free regenerated plant (s)", "setting": "[1]; [7]", "result": 3}, {"measurement": "Regeneration rate (%)", "setting": "[2]; [3]", "result": 53.33, "unit": "%"}, {"measurement": "Number of regenerated plant (s)", "setting": "[2]; [3]", "result": 16}, {"measurement": "Regeneration rate (%)", "setting": "[2]; [4]", "result": 63.33, "unit": "%"}, {"measurement": "Number of regenerated plant (s)", "setting": "[2]; [4]", "result": 19}, {"measurement": "Regeneration rate (%)", "setting": "[2]; [5]", "result": 73.33, "unit": "%"}, {"measurement": "Number of regenerated plant (s)", "setting": "[2]; [5]", "result": 22}, {"measurement": "Regeneration rate (%)", "setting": "[2]; [6]", "result": 86.67, "unit": "%"}, {"measurement": "Number of regenerated plant (s)", "setting": "[2]; [6]", "result": 26}, {"measurement": "Regeneration rate (%)", "setting": "[2]; [7]", "result": 96.67, "unit": "%"}, {"measurement": "Number of regenerated plant (s)", "setting": "[2]; [7]", "result": 29}]}]}
